Test results published in US20080286349A1, “SYSTEMS, DEVICES, AND METHODS FOR PASSIVE TRANSDERMAL DELIVERY OF ACTIVE AGENTS TO A BIOLOGICAL INTERFACE” (priority 2007, published 2008).
Counter-ions that a name gives are not always drawn.

Key:
[1] = Membrane potential measurement across skin in H-shaped Franz cell; ion mobility relative to chloride; format: physicochemical, mouse; details: Cl− = 1
Source text: The electric potential difference shown here is between the outside and the inside of the skin. The “+/−” notation is opposite to that shown in Equation 12. […] These values have been used to make calculations.

[2] = Computed membrane potential and ion flux (Eq. 11 Goldman equation, Eq. 12); details: relative to Cl−
Source text: Further, it is necessary to linearly approximate the concentration gradient or the electric potential gradient to solve equation 9. […] The potential difference across the skin has been considered for a single component system. […] Thus, a film potential can be calculated provided that the ion mobility (omega) and concentration (c) within the skin are known. The ion transport speed can then be found from the calculated film potential.

[3] = Example 1: Procaterol HCl solutions, Franz cell at 32° C.; format: in vitro ADME, mouse; parameters: unit not given here
Procedure: Typically, 17 ml of phosphate buffered saline (PBS, sold by Wako Pure Chemical Industries) was injected into the receptor cell, and a 10 mm stirring bar was used to agitate the solution during the test. The Franz cell was placed in an incubator (made by ESPEC, model LH-113) with the temperature set to 32° C. and the humidity set to 70%. Samples were typically extracted from the cell at predetermined times using a 200 μl Gilson Pipetman. 200 μl of PBS was then added to the cell after each sampling operation.
For measuring the active agent (e.g., Procaterol cation) permeated, a standard solution with known concentration can be prepared and compared with the concentration measured. Using Procaterol HCl as an example, 50 mg of Procaterol HCl (97.25% anhydrous) was accurately measured out, and then added to water to form 50 ml of solution (“Procaterol concentrate liquid”). The standard concentrate was then diluted (“Procaterol standard solution”) and used as a mobile phase for high performance (or pressure) liquid chromatography (HPLC). The Procaterol concentrate liquid was sealed in a light shielding bottle and stored in a refrigerator. 10 μl of each test sample and 10 μl of the standard solution was measured using HPLC, and Procaterol peak areas At (test samples) and As (standard solution) were determined for each sample. Procaterol HCl masses were then found for each test sample using the following equation: […]
In Example 1, before testing the delivery device 10, sixteen tests were performed at four different agent concentrations (four tests (#1, #2, #3, and #4) for each concentration of active agent) using Procaterol HCl in order to investigate the transport of Procaterol cation into and through skin along a concentration gradient. A Franz cell was used at 32° C. using hairless mouse skin as a permeable membrane. 720 corresponds to the average delivery of a 5 wt % Procaterol-HCl concentration, 722 corresponds to the average delivery of a 2.5 wt % Procaterol-HCl concentration, 724 corresponds to the average delivery of a 1 wt % Procaterol-HCl concentration, and 726 corresponds to the average delivery of a 0.5 wt % Procaterol-HCl concentration. […] It can be seen that the amount of Procaterol delivered through the skin increases over time. Further, it can also be seen that the amount of Procaterol delivered increases with increased Procaterol concentration. To deliver a medically effective amount of Procaterol through the skin, the concentration of the Procaterol solution must be equal to or greater than a certain threshold concentration. A sufficient amount of Procaterol dissolved in water was used in this experiment, thus leading to a rather large Procaterol delivery speed. It is therefore possible to deliver Procaterol through the skin, provided that the solution exists in proximity to the surface of the skin.

[4] = Delivery of aqueous drug solutions through skin in Franz cell (amount over time, flux); details: for experimental Flux J: 1.0% Diclofenac
Source text: An H-shaped Franz cell (FIG. 7) was used to evaluate the theory described herein. As shown, the Franz cell 28 includes a donor chamber 30a and a receiver chamber 30b. The donor chamber 30a contains an ionic active agent, which permeates through a membrane 32 to reach the receiver chamber 30b. A working electrode 34a was inserted in the donor chamber 30a, while a counter electrode 34b (i.e., reference electrode) was inserted in the receptor chamber 30b. It is possible to measure the electrical potential difference induced by the ionic diffusion/permeation and the concentration gradient thus established. […]

## O=C1O[C@H]([C@@H](O)CO)C(O)=C1O[C@H]1O[C@H](CO)[C@@H](O)[C@H](O)[C@H]1O [AA2G, L-Ascorbic acid 2-Glucoside]
[1]; AA2G 300 mM (0.296 mol dm^−3 donor)
  Mobility of ion (AA2G− compared to chloride ions): 0.83
[2]; AA2G 0.000059 mol cm^3
  Mobility ratio w: 0.1
[2]; AA2G 0.000148 mol cm^3
  Mobility ratio w: 0.4

## CCC(NC(C)C)C(O)c1ccc(O)c2[nH]c(=O)ccc12 (stereo not shown) [Procaterol HCl, 8-hydroxy-5-[1-hydroxy-2-[(1-methylethyl)amino]butyl]-2(1H)-quinolinone]
[1]; […] Procaterol HCl donor
  Mobility of ion (Procaterol cation with respect to chloride ions): 0.13
[3]; Test ID 720 (5.0%), 0 hrs.
  Total transmission amount, Ave.: 0.0
  Total transmission amount, single samples #1-#4: 0.0
[3]; Test ID 720 (5.0%), 1 hr.
  Total transmission amount, Ave.: 0.7
[3]; Test ID 720 (5.0%), 3 hrs.
  Total transmission amount, Ave.: 5.3
[3]; Test ID 720 (5.0%), 5 hrs.
  Total transmission amount, Ave.: 10.4
[3]; Test ID 720 (5.0%), 8 hrs.
  Total transmission amount, Ave.: 16.3
[3]; Test ID 722 (2.5%), 0 hrs.
  Total transmission amount, Ave.: 0.0
  Total transmission amount, single samples #1-#4: 0.0
[3]; Test ID 722 (2.5%), 1 hr.
  Total transmission amount, Ave.: 0.4
[3]; Test ID 722 (2.5%), 3 hrs.
  Total transmission amount, Ave.: 1.7
[3]; Test ID 722 (2.5%), 5 hrs.
  Total transmission amount, Ave.: 2.8
[3]; Test ID 722 (2.5%), 8 hrs.
  Total transmission amount, Ave.: 4.1
[3]; Test ID 724 (1.0%), 0 hrs.
  Total transmission amount, Ave.: 0.0
  Total transmission amount, single samples #1-#4: 0.0
[3]; Test ID 724 (1.0%), 1 hr.
  Total transmission amount, Ave.: 0.0
  Total transmission amount, single samples #1-#4: 0.0
[3]; Test ID 724 (1.0%), 3 hrs.
  Total transmission amount, Ave.: 0.2
[3]; Test ID 724 (1.0%), 5 hrs.
  Total transmission amount, Ave.: 0.4
[3]; Test ID 724 (1.0%), 8 hrs.
  Total transmission amount, Ave.: 0.7
[3]; Test ID 726 (0.5%), 0 hrs.
  Total transmission amount, Ave.: 0.0
  Total transmission amount, single samples #1-#4: 0.0
[3]; Test ID 726 (0.5%), 1 hr.
  Total transmission amount, Ave.: 0.0
  Total transmission amount, single samples #1-#4: 0.0
[3]; Test ID 726 (0.5%), 3 hrs.
  Total transmission amount, Ave.: 0.2
[3]; Test ID 726 (0.5%), 5 hrs.
  Total transmission amount, Ave.: 0.5
[3]; Test ID 726 (0.5%), 8 hrs.
  Total transmission amount, Ave.: 0.8
[4]; 0.015 M aqueous Procaterol
  Flux: 0 mg h^−1 cm^−2
[4]; 0.015 M, time 0 hr
  Amount of aqueous Procaterol delivered: 0
[4]; 0.015 M, time 2 hr
  Amount of aqueous Procaterol delivered: 0
[4]; 0.015 M, time 3 hr
  Amount of aqueous Procaterol delivered: 0
[4]; 0.015 M, time 5 hr
  Amount of aqueous Procaterol delivered: 0
[4]; 0.03 M aqueous Procaterol
  Flux: 0.024 mg h^−1 cm^−2
[4]; 0.03 M, time 0 hr
  Amount of aqueous Procaterol delivered: 0
[4]; 0.03 M, time 2 hr
  Amount of aqueous Procaterol delivered: 0
[4]; 0.03 M, time 3 hr
  Amount of aqueous Procaterol delivered: 0
[4]; 0.03 M, time 5 hr
  Amount of aqueous Procaterol delivered: 0.12
[4]; 0.06 M aqueous Procaterol
  Flux: 0.082 mg h^−1 cm^−2
[4]; 0.06 M, time 0 hr
  Amount of aqueous Procaterol delivered: 0
[4]; 0.06 M, time 2 hr
  Amount of aqueous Procaterol delivered: 0.13
[4]; 0.06 M, time 3 hr
  Amount of aqueous Procaterol delivered: 0.22
[4]; 0.06 M, time 5 hr
  Amount of aqueous Procaterol delivered: 0.41
[4]; […] aqueous Procaterol
  Flux: 0.84 mg h^−1 cm^−2
[4]; […], time 0 hr
  Amount of aqueous Procaterol delivered: 0
[4]; […], time 2 hr
  Amount of aqueous Procaterol delivered: 1.53
[4]; […], time 3 hr
  Amount of aqueous Procaterol delivered: 2.47
[4]; […], time 5 hr
  Amount of aqueous Procaterol delivered: 4.20
[2]; Procaterol 0.000015 mol cm^−3
  Mobility ratio w: 0.13
[2]; Procaterol 0.00003 mol cm^−3
  Mobility ratio w: 0.13
[2]; Procaterol 0.00006 mol cm^−3
  Mobility ratio w: 0.13

## O=C([O-])Cc1ccccc1Nc1c(Cl)cccc1Cl.[Na+] [Diclofenac, monosodium 2-(2-(2,6-dichlorophenylamino)phenyl)acetate]
[1]; 0.032 mol dm^−3 sodium Diclofenac donor
  Mobility of ion (Diclofenac anion compared to chloride ions): 4.6
[4]; 0.003 M sodium Diclofenac
  Flux: 1.30 μg h^−1 cm^−2
[4]; 0.003 M, time 0 hr
  Amount of Diclofenac delivered: 0.0
[4]; 0.003 M, time 1 hr
  Amount of Diclofenac delivered: 0.0
[4]; 0.003 M, time 3 hr
  Amount of Diclofenac delivered: 2.0
[4]; 0.003 M, time 5 hr
  Amount of Diclofenac delivered: 5.6
[4]; 0.003 M, time 24 hr
  Amount of Diclofenac delivered: 31.1
[4]; 0.016 M sodium Diclofenac
  Flux: 2.21 μg h^−1 cm^−2
[4]; 0.016 M, time 0 hr
  Amount of Diclofenac delivered: 0.0
[4]; 0.016 M, time 1 hr
  Amount of Diclofenac delivered: 0.0
[4]; 0.016 M, time 3 hr
  Amount of Diclofenac delivered: 3.6
[4]; 0.016 M, time 5 hr
  Amount of Diclofenac delivered: 9.8
[4]; 0.016 M, time 24 hr
  Amount of Diclofenac delivered: 53.1
[4]; 0.031 M sodium Diclofenac
  Flux: 4.62 μg h^−1 cm^−2
[4]; 0.031 M, time 0 hr
  Amount of Diclofenac delivered: 0.0
[4]; 0.031 M, time 1 hr
  Amount of Diclofenac delivered: 0.3
[4]; 0.031 M, time 3 hr
  Amount of Diclofenac delivered: 5.4
[4]; 0.031 M, time 5 hr
  Amount of Diclofenac delivered: 12.1
[4]; 0.031 M, time 24 hr
  Amount of Diclofenac delivered: 110.9
[4]; KCl conc 0 %
  experimental Flux J: 4.3 μg h^−1 cm^−2
[4]; KCl conc 0.1 %
  experimental Flux J: 6.2 μg h^−1 cm^−2
[4]; KCl conc 0.5 %
  experimental Flux J: 7.0 μg h^−1 cm^−2
[2]; Diclofenac 0.0000016 mol cm^−3
  Mobility ratio w: 4.6
[2]; Diclofenac 0.0000032 mol cm^−3 (last line)
  Mobility ratio w: 4.6
[2]; Diclofenac 0.0000032 mol cm^−3 (third line)
  Mobility ratio w: 4.6
[2]; Diclofenac 0.000016 mol cm^−3
  Mobility ratio w: 4.6
